Results: patent US20230123334A1, “AMINO LIPID COMPOUND, PREPARATION METHOD THEREFOR, AND APPLICATION THEREOF” (SHENZHEN SHENXIN BIOTECHNOLOGY CO., LTD., priority 2020, published 2023)

The compounds below were run on Hela cells (assay: Transfection of Hela cell line, DNA vectors). Details: 75 ng plasmid DNA, GFP cells / total cells.
Type: cell-based
Outline: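 Amino lipid/DOPE liposomes in sodium acetate pH 5.6 were complexed with 75 ng psin-EGFP-IRES-Puro plasmid for 30 min at room temperature, then mixed with 3-5×10^4 Hela cells in DMEM/10% FBS at 37° C. Hoechst stain after 20-24 h, imaging after a further 20-24 h. Efficiency = GFP-positive cells / total nuclei.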

Row | Structure (SMILES) | Absolute DNA transfection efficiency in Hela cells
1 | CCCCCCCCCCCCNc1nc(NCCCN2CCOCC2)nc(SCCCCCCCCC)n1 [Compound S9N12D8] | 6.8%
2 | CCCCCCCCCCCCNc1nc(NCCCN2CCN(C)CC2)nc(SCCCCCCCCC)n1 [Compound S9N12D9] | 14.4%
3 | CCCCCCCCCCCCNc1nc(NCC2CCN(C)CC2)nc(SCCCCCCCCC)n1 [Compound S9N12D10] | 12.9%
4 | CCCCCCCCCCCSc1nc(NCCCCCCCC)nc(NCCN2CCCC2)n1 [Compound S11N8D3] | 12.9%
5 | CCCCCCCCCCCSc1nc(NCCCCCCCC)nc(NCCN2CCN(C)CC2)n1 [Compound S11N8D5] | 9.6%
6 | CCCCCCCCCCCSc1nc(NCCCCCCCC)nc(NCCCN(C)C)n1 [Compound S11N8D6] | 18.4%

These compounds were tested on Hela cells (assay: Transfection of Hela cell line, mRNA vectors). Details: 50 ng EGFP mRNA per well.
Type: cell-based
Outline: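 HeLa cells in DMEM with 10% FBS transfected with 50 ng EGFP mRNA per well. Readout is percentage of GFP-positive cells among total cells counted by Hoechst nuclear stain; Lipofectamine2000 served as positive control.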

Row | Structure (SMILES) | Absolute mRNA transfection efficiency in Hela cells
7 | CCCCCCCCCCCCNc1nc(NCCCN2CCOCC2)nc(SCCCCCCCCC)n1 [Compound S9N12D8] | 6.8%
8 | CCCCCCCCCCCCNc1nc(NCCCN2CCN(C)CC2)nc(SCCCCCCCCC)n1 [Compound S9N12D9] | 14.4%
9 | CCCCCCCCCCCCNc1nc(NCC2CCN(C)CC2)nc(SCCCCCCCCC)n1 [Compound S9N12D10] | 12.9%
10 | CCCCCCCCCCCSc1nc(NCCCCCCCC)nc(NCCN2CCCC2)n1 [Compound S11N8D3] | 12.9%
11 | CCCCCCCCCCCSc1nc(NCCCCCCCC)nc(NCCN2CCN(C)CC2)n1 [Compound S11N8D5] | 9.6%
12 | CCCCCCCCCCCSc1nc(NCCCCCCCC)nc(NCCCN(C)C)n1 [Compound S11N8D6] | 18.4%

These compounds were tested on MCF7 cells (assay: Transfection of MCF7 cell line, DNA vectors). Details: plasmid DNA, GFP cells / total cells.
Type: cell-based
Design: concentration or dose not given beside the values
Outline: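 MCF7 cells in DMEM with fetal bovine serum were transfected in 96-well format. Read-out was the percentage of GFP-fluorescent cells among total cells counted by Hoechst nuclear stain. Lipofectamine2000 served as positive control.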

Row | Structure (SMILES) | Absolute DNA transfection efficiency in MCF7 cells
13 | CCCCCCCCCCCCNc1nc(NCCCN2CCOCC2)nc(SCCCCCCCCC)n1 [Compound S9N12D8] | 6.2%
14 | CCCCCCCCCCCCNc1nc(NCCCN2CCN(C)CC2)nc(SCCCCCCCCC)n1 [Compound S9N12D9] | 20.0%
15 | CCCCCCCCCCCCNc1nc(NCC2CCN(C)CC2)nc(SCCCCCCCCC)n1 [Compound S9N12D10] | 31.7%
16 | CCCCCCCCCCCSc1nc(NCCCCCCCC)nc(NCCN2CCCC2)n1 [Compound S11N8D3] | 17.7%
17 | CCCCCCCCCCCSc1nc(NCCCCCCCC)nc(NCCN2CCN(C)CC2)n1 [Compound S11N8D5] | 20.1%
18 | CCCCCCCCCCCSc1nc(NCCCCCCCC)nc(NCCCN(C)C)n1 [Compound S11N8D6] | 9.3%

These compounds were tested on MCF7 cells (assay: Transfection of MCF7 cell line, mRNA vectors). Details: 50 ng EGFP mRNA per well.
Type: cell-based
Outline: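 MCF7 cells in DMEM with fetal bovine serum were transfected with 50 ng EGFP mRNA per well. Read-out was the percentage of GFP-positive cells among total Hoechst-stained nuclei, with Lipofectamine2000 as positive control.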

Row | Structure (SMILES) | Absolute mRNA transfection efficiency in MCF7 cells
19 | CCCCCCCCCCCCNc1nc(NCCCN2CCOCC2)nc(SCCCCCCCCC)n1 [Compound S9N12D8] | 0.7%
20 | CCCCCCCCCCCCNc1nc(NCCCN2CCN(C)CC2)nc(SCCCCCCCCC)n1 [Compound S9N12D9] | 16.4%
21 | CCCCCCCCCCCCNc1nc(NCC2CCN(C)CC2)nc(SCCCCCCCCC)n1 [Compound S9N12D10] | 11.2%
22 | CCCCCCCCCCCSc1nc(NCCCCCCCC)nc(NCCN2CCCC2)n1 [Compound S11N8D3] | 8.6%
23 | CCCCCCCCCCCSc1nc(NCCCCCCCC)nc(NCCN2CCN(C)CC2)n1 [Compound S11N8D5] | 21.2%
24 | CCCCCCCCCCCSc1nc(NCCCCCCCC)nc(NCCCN(C)C)n1 [Compound S11N8D6] | 11.0%

What follows are compounds tested on embryonic stem cells (hESC2) (assay: Screening as DNA vectors in embryonic stem cells, flow cytometry). Details: 75 ng plasmid DNA, 48 hours after transfection, flow cytometer.
Type: cell-based
From the text: (§1) Cell line: embryonic stem cells (hESC2, cultured according to reported methods: Stem Cells, 2005, 23, 544-549)
(§2) Medium: mTeSR1 (STEMCELL)
(§3) Mode of screening: cell transfection on 96-well plates
(§4) Detection (readout): percentage of the number of GFP fluorescent cells relative to the total number of cells. Lipofectamine Stem was used as the positive control.
Method: an 8-channel pipette was used for sample addition. The contents shown were for a single well of a 96-well flat plate.
1. Stem cells were cultured to 3-5×10^4 cells per well in a 96-well plate treated with matrigel.
2. The compound (0.01 mmol) prepared in Example 1 was dissolved in 1 mL of anhydrous ethanol. After ultrasonically dissolved, 10 μL of the resultant amino lipid solution in ethanol was taken and mixed with 5 μL of DOPE solution in ethanol ([…]). The obtained mixture was then added with 35 μL of 0.2 M sodium acetate buffer (pH 5.6), and vortexed at a constant rotating speed for 30 s. Then, 4 μL was taken from the obtained product and added to 46 μL of 0.02 M sodium acetate buffer (pH 5.6), and vortexed at a constant rotating speed for 30 s to form a liposome solution. 5 μL of this liposome solution was mixed with 75 ng of plasmid DNA (pSin-EGFP-IRES-Puro) dissolved in 5 μL of 0.02 M sodium acetate buffer, and allowed to stay at room temperature for 30 min to form a lipid/DNA transfection complex.
3. 10 μL of the lipid/DNA transfection complex was incubated at room temperature for 30 min, followed by addition of 90 μL mTeSR1 medium was added and mixing with a pipette. 100 μL of the mixture was added to separate wells of a 96-well culture plate and placed in an incubator containing 5% CO2 at 37° C.
4. 48 hours after transfection, the cells were digested with 0.05% Trypsin-EDTA. The cells were resuspended in a PBS buffer and filtered. The cell suspension was placed in a flow cytometer and the number of GFP-expressing cells in no less than 2000 cells was measured so as to obtain the absolute efficiency of cell transfection. The relative efficiency of cell transfection was obtained by comparing the cell transfection efficiency with the positive control Lipofectamine Stem.

Row | Structure (SMILES) | Absolute DNA transfection efficiency in embryonic stem cells
25 | CCCCCCCCCCCCNc1nc(NCCCN2CCOCC2)nc(SCCCCCCCCC)n1 [Compound S9N12D8] | 1.1%
26 | CCCCCCCCCCCCNc1nc(NCCCN2CCN(C)CC2)nc(SCCCCCCCCC)n1 [Compound S9N12D9] | 2.7%
27 | CCCCCCCCCCCCNc1nc(NCC2CCN(C)CC2)nc(SCCCCCCCCC)n1 [Compound S9N12D10] | 5.3%
28 | CCCCCCCCCCCSc1nc(NCCCCCCCC)nc(NCCN2CCCC2)n1 [Compound S11N8D3] | 4.3%
29 | CCCCCCCCCCCSc1nc(NCCCCCCCC)nc(NCCN2CCN(C)CC2)n1 [Compound S11N8D5] | 4.0%
30 | CCCCCCCCCCCSc1nc(NCCCCCCCC)nc(NCCCN(C)C)n1 [Compound S11N8D6] | 1.7%

What follows are compounds tested on embryonic stem cells (hESC2) (assay: Screening as mRNA vectors in embryonic stem cells). Details: 50 ng EGFP mRNA per well.
Type: cell-based
Experimental: as §1, §2
Mode of screening: cell transfection on 96-well plate
as §4
Method: the experimental method was basically the same with Example 10, and the mass of EGFP mRNA for transfection was 50 ng per well.

Row | Structure (SMILES) | Absolute mRNA transfection efficiency in embryonic stem cells
31 | CCCCCCCCCCCCNc1nc(NCCCN2CCOCC2)nc(SCCCCCCCCC)n1 [Compound S9N12D8] | 11.1%
32 | CCCCCCCCCCCCNc1nc(NCCCN2CCN(C)CC2)nc(SCCCCCCCCC)n1 [Compound S9N12D9] | 7.6%
33 | CCCCCCCCCCCCNc1nc(NCC2CCN(C)CC2)nc(SCCCCCCCCC)n1 [Compound S9N12D10] | 14.0%
34 | CCCCCCCCCCCSc1nc(NCCCCCCCC)nc(NCCN2CCCC2)n1 [Compound S11N8D3] | 12.8%
35 | CCCCCCCCCCCSc1nc(NCCCCCCCC)nc(NCCN2CCN(C)CC2)n1 [Compound S11N8D5] | 6.9%
36 | CCCCCCCCCCCSc1nc(NCCCCCCCC)nc(NCCCN(C)C)n1 [Compound S11N8D6] | 2.0%

The compounds below were run on cardiomyocytes (assay: Screening as DNA vectors in cardiomyocytes). Details: method as Example 4.
Type: cell-based
Design: concentration or dose not given beside the values
Experimental: Cell line: cardiomyocytes (obtained from induced differentiation of hESC according to reported methods: J. Mol. Cell. Cardiol. 2011, 51, 288-298)
(§5) Medium: DMEM supplemented with 10% fetal bovine serum (Invitrogen)
as §3
(§6) Detection (readout): percentage of the number of GFP fluorescent cells relative to the total number of cells (the total number of cells was determined using nucleus dye Hoechst). Lipofectamine Stem (Invitrogen) was used as the positive control, according to the manufacturer's instructions.
Method: the experimental method was basically the same with Example 4.

Row | Structure (SMILES) | Absolute DNA transfection efficiency in cardiomyocytes
37 | CCCCCCCCCCCCNc1nc(NCCCN2CCOCC2)nc(SCCCCCCCCC)n1 [Compound S9N12D8] | 1.5%
38 | CCCCCCCCCCCCNc1nc(NCCCN2CCN(C)CC2)nc(SCCCCCCCCC)n1 [Compound S9N12D9] | 0.0%
39 | CCCCCCCCCCCCNc1nc(NCC2CCN(C)CC2)nc(SCCCCCCCCC)n1 [Compound S9N12D10] | 3.6%
40 | CCCCCCCCCCCSc1nc(NCCCCCCCC)nc(NCCN2CCCC2)n1 [Compound S11N8D3] | 0.2%
41 | CCCCCCCCCCCSc1nc(NCCCCCCCC)nc(NCCN2CCN(C)CC2)n1 [Compound S11N8D5] | 9.1%
42 | CCCCCCCCCCCSc1nc(NCCCCCCCC)nc(NCCCN(C)C)n1 [Compound S11N8D6] | 6.7%

These compounds were tested on cardiomyocytes (assay: Screening as mRNA vectors in cardiomyocytes). Details: 50 ng EGFP mRNA per well.
Type: cell-based
Experimental: Cell line: cardiomyocytes (obtained from induced differentiation of hESC according to reported methods: J Mol. Cell. Cardiol. 2011, 51, 288-298)
as §5, §3, §6
Method: the experimental method was basically the same with Example 4, and the mass of EGFP mRNA for transfection was 50 ng per well.

Row | Structure (SMILES) | Absolute mRNA transfection efficiency in cardiomyocytes
43 | CCCCCCCCCCCCNc1nc(NCCCN2CCOCC2)nc(SCCCCCCCCC)n1 [Compound S9N12D8] | 2.1%
44 | CCCCCCCCCCCCNc1nc(NCCCN2CCN(C)CC2)nc(SCCCCCCCCC)n1 [Compound S9N12D9] | 32.0%
45 | CCCCCCCCCCCCNc1nc(NCC2CCN(C)CC2)nc(SCCCCCCCCC)n1 [Compound S9N12D10] | 40.6%
46 | CCCCCCCCCCCSc1nc(NCCCCCCCC)nc(NCCN2CCCC2)n1 [Compound S11N8D3] | 24.5%
47 | CCCCCCCCCCCSc1nc(NCCCCCCCC)nc(NCCN2CCN(C)CC2)n1 [Compound S11N8D5] | 32.2%
48 | CCCCCCCCCCCSc1nc(NCCCCCCCC)nc(NCCCN(C)C)n1 [Compound S11N8D6] | 7.9%
